According to US8475848B2, “Cosmetic composition having anti-radical properties and corresponding application method” (Yves Saint Laurent Parfums, priority 2007, dated 2013):

How the values were obtained:
[1] = DPPH test on pure extracts (reduction of DPPH, optical density); type: biochemical; details: for % control (OD) / Activity (DPPH reduction): DPPH test
Text: (§1) The activity of the pure extracts was studied by means of two biochemical tests: one was based on the reduction of 2,2-diphenyl-1-picrylhydrazyl (DPPH) by the anti-oxidants, and the other was based on the measurement of hydrogen peroxide (H2O2) in the reaction media. H2O2 is trapped by a specific reagent, “AmplexRed”. 2,2-diphenyl-1-picrylhydrazyl (DPPH) is a stable radical compound that is reduced to 1,1-diphenyl-2-picrylhydrazine by anti-oxidants. This reduction is followed by a color change in the DPPH solution (optical density measurement).
(§2) The pure extracts as well as the anti-oxidant references (α-tocopherol and BHA: butylated hydroxyanisole for DPPH, BHA alone for AmplexRed) were dissolved in ethanol. Controls using ethanol alone were produced in order to verify the absence of interference of this solvent.
The products for this test were tested starting from a concentration of 1 mg/ml in a power of ten series. The alpha-tocopherol positive control was tested at a concentration of 0.1 μM [micromolar] and the BHA was tested at a concentration of 50 μM.

[2] = H2O2/AmplexRed test on pure extracts (fluorescence); type: biochemical
Text: as §1
AmplexRed is a compound which reacts in a stoichiometric manner with H2O2, producing a fluorescent red compound, resofurin, which can be measured by fluorescence. This test can detect small quantities of H2O2.
as §2
The products for this test were tested starting from a concentration of 1 μg/ml in a power of ten series. The BHA positive control was tested at concentrations of 50 μM and 500 μM.

irradiated skin explants = experiment: Lipid peroxidation test on irradiated skin explants, extracts associated with an insoluble mineral substrate dispersed in carnation oil; type: cell-based; details: reference (positive control), 5 mg/cm^2 topical, UVA+B
Method: Study of the activity of extracts associated with an insoluble mineral substrate dispersed in carnation oil were carried out using a lipid peroxidation test on irradiated skin explants. This test, which was carried out by applying the products topically, meant that the effects of non-hydrosoluble extracts could be studied in vitro.
Upon receipt, the skin explants were cut and placed in culture.
The test products or the reference (positive control=BHA) were then applied to the surface of the explants in a quantity of 5 mg/cm^2 [milligrams/square centimeter] and the explants were placed in an incubator for 24 h [hours] at 37° C. in the presence of 95% air and 5% CO2.
After incubation and washing, the explants for each series were exposed to irradiation using ultraviolet A and B (UVA+B) radiation. Irradiation was carried out using a SOL500 Sun Simulator lamp with an H2 filter and the exposure conditions were as follows: • UVA+B filter: • UVA: power 11.5 mW/cm^2 [milliwatt/square centimeter] i.e. 678.6 mJ/cm^2/minute [millijoule/square centimeter/minute]; • UVB: power 0.78 mW/cm^2, i.e. 47.1 mJ/cm^2/minute; • Irradiation period: 21 minutes; • i.e. approximately 1 J/cm^2 of UVB and 14 J/cm^2 of UVA.
Three other untreated control explants were kept away from the light. […]
The epidermis was then extracted and the viability of the cells was evaluated using MTT reduction. […]

| SMILES | % control (OD) ([1]; 50 μM) [%] | Activity (DPPH reduction) ([1]; 50 μM) | % control (fluorescence intensity) ([2]; 50 μM) [%] | Activity (reduction of free H2O2) ([2]; 50 μM) | % control (fluorescence intensity) ([2]; 500 μM) [%] | Activity (reduction of free H2O2) ([2]; 500 μM) | production of lipid peroxides after irradiation (in words) (irradiated skin explants) | % control (OD) ([1]; 0.1 μM) [%] | Activity (DPPH reduction) ([1]; 0.1 μM) | reduction of DPPH (in words) ([1]; reference, 0.1 μM) |
| --- | --- | --- | --- | --- | --- | --- | --- | --- | --- | --- |
| COc1ccc(O)c(C(C)(C)C)c1 [BHA, butylated hydroxyanisole] | 74 | +/− (25% reduction) | 38 | ++ (strong reduction more than 50%) | 34 | ++ (strong reduction more than 50%) | greatly reduced the production of lipid peroxides | – | – | – |
| Cc1c(C)c2c(c(C)c1O)CC[C@@](C)(CCC[C@H](C)CCC[C@H](C)CCCC(C)C)O2 [Tocopherol, α-tocopherol] | – | – | – | – | – | – | – | 9 | ++ (large reduction more than 50%) | clearly reduced the DPPH |
